Assay results reported in patent US20120196918A1, “PREVENTING ISLET INFLAMMATION AND DYSFUNCTION AND MAINTAINING PROPER GLUCOSE LEVELS BY CONTROLLING eIF5A AND ITS HYPUSINATION” (priority 2009, published 2012).

Legend:
Nos2 mRNA [1] = test: Nos2 transcript levels in INS-1 cells (quantitative RT-PCR); assay type: cell-based, rat; conditions: 125 μM GC7, cytokines
Text: eIF5A1 and eIF5A2 are the only proteins known to contain the unique amino acid hypusine at position 50. Hypusine is formed as a posttranslational modification of residue Lys50 in a reaction requiring spermidine and catalyzed by the sequential actions of the enzymes deoxyhypusine synthase (DHS) and deoxyhypusine hydroxylase (DOHH) (Chen, K Y, and Liu, A Y. Biochemistry and function of hypusine formation on eukaryotic initiation factor 5A. Biol Signals. 1997; 6(3):105-109). […] To further investigate the mechanism of eIF5A-regulated translation of Nos2, studies were performed following overnight incubation of cells with mimosine (an inhibitor of DOHH) and GC7 (an inhibitor of DHS). […] Similar data using GC7 were obtained in primary mouse islets (data not shown) and in human islets (FIGS. 5F and 5G). […]
Quantitative RT-PCR: Five micrograms of total RNA from islets or INS-1 cells were reverse-transcribed as detailed previously (77). cDNA was subjected to quantitative PCR using SYBR Green-based technology and published primers for mouse Ins1/2 pre-mRNA (78) and QuantiTech® primers (Qiagen) for all other mouse genes. […] All samples were corrected for total input RNA as quantitated by an Experion® (Bio-Rad) bioanalyzer. […]

Nos2 mRNA [2] = test: Nuclear export of Nos2 mRNA, subcellular fractionation of cytokine-treated INS-1 cells; assay type: cell-based, rat; conditions: cytokine-treated; GC7 100 μM overnight or leptomycin B 20 ng/ml 3 h
Method: Subcellular fractionation studies: Nuclear and cytoplasmic fractions of 1×10^6 cytokine-treated INS-1 cells exposed to vehicle, leptomycin B (20 ng/ml), or GC7 (100 μM) were prepared using the method of Dignam, et al. (76). Total RNA was isolated from nuclear and cytoplasmic fractions using the RNeasy® RNA isolation kit (Qiagen).
Quantitative RT-PCR: Five micrograms of total RNA from islets or INS-1 cells were reverse-transcribed as detailed previously (77). cDNA was subjected to quantitative PCR using SYBR Green-based technology and published primers for mouse Ins1/2 pre-mRNA (78) and QuantiTech® primers (Qiagen) for all other mouse genes. The Assay on Demand® kit (Applied Biosystems) was used to amplify rat genes in INS-1 cells and human genes in human islets. Thermal cycling was performed according to manufacturer's instructions, and the identity of each PCR product was verified by automated sequencing. All samples were corrected for total input RNA as quantitated by an Experion® (Bio-Rad) bioanalyzer. All data represent the average of triplicate determinations from at least 3 independent experiments.

iNOS = iNOS activity assay (commercial kit); assay type: biochemical; conditions: GC7 125 μM
Method: Because GC7 is known to be inactivated by the action amine oxidases, which are abundant in serum, typical studies with GC7 in the literature have used aminoguanidine to inhibit amine oxidases (16). […] To rule out possible adverse effects of GC7 on cell viability, quantitative 2 color fluorescence analysis of live (calcein-AM-positive) and dead (ethidium homodimer-1-positive) cells were performed using fluorescence cytometry.
Immunoblot and nitrite and iNOS assays: Whole cell extracts were resolved by electrophoresis on a 4-20% SDS-polyacrylamide gel, followed by immunoblot using anti-eIF5A1, anti-eIF5A2, anti-iNOS, anti-GFP, or anti-actin primary antibodies and fluorophore-labeled secondary antibodies. Immunoblots were visualized using the Li-Cor® Odyssey® system (Li-Cor Biosciences) and quantitated by scanning fluorometry using Odyssey Imaging v. 3.0 software (Li-Cor Biosciences). Nitrite was quantitated by measuring nitric oxide-derived nitrite from INS-1 cell culture medium using the Griess reagent (Promega) according to the manufacturer's recommendations. iNOS activity was measured using a commercially available kit (Cayman).

NCCCCCCCN=C(N)N [GC7]
Nos2 transcript levels (Nos2 mRNA [1]): remained disproportionately elevated | distribution of mRNAs between nuclear and cytoplasmic fractions (Nos2 mRNA [2]): relative nuclear retention of Nos2 mRNA | inhibition of iNOS activity (iNOS): does not appear to inhibit iNOS activity
